Assay: in vitro
Settings: human, Caco-2

**Q.** For COc1ccc(OC)c(CCn2cnc3sc4c(c3c2=O)CCC(C(=O)N(C)C)C4)c1 (stereo not drawn), which Papp is on record?
**A.** 46.8 ×10⁻⁶ cm/s

**Q.** With COc1cc(C(C)C)c(Oc2cnc(N)nc2N)cc1I as the compound, how does the Papp read?
**A.** 30.6 ×10⁻⁶ cm/s

**Q.** For COc1cc(C(C)C)c(Oc2cnc(N)nc2N)cc1S(N)(=O)=O [GEFAPIXANT], which Papp is on record?
**A.** 0.7 ×10⁻⁶ cm/s

From ChEMBL document CHEMBL4425152, “New P2X3 receptor antagonists. Part 1: Discovery and optimization of tricyclic compounds” (Bioorg Med Chem Lett, 2016)
